Values joined by “and” are separate entries in the source; they are usually repeats but may differ in a detail not shown here. Equal values may be shown once. Read-outs that look alike come from different tables or passages of the source.
Tested on: Early Stage PD patients
Conditions: for Primary 1: rate of change in UPDRS, weeks 12-36, 1 mg/day - placebo / Secondary Endpoint: change in total UPDRS from baseline to final visit in phase I, 1 mg/day - placebo: rasagiline 1 mg/day minus placebo; for Primary 1: rate of change in UPDRS, weeks 12-36, 2 mg/day - placebo / Secondary Endpoint: change in total UPDRS from baseline to final visit in phase I, 2 mg/day - placebo: rasagiline 2 mg/day minus placebo
Method: 1 mg/day rasagiline during Phase I and Phase II; • Group 2. 2 mg/day rasagiline during Phase I and Phase II; • Group 3. placebo during Phase I followed by 1 mg/day rasagiline during Phase II; and • Group 4. placebo during Phase I followed by 2 mg/day rasagiline during Phase II.
Thus, ‘early-start’ patients receive 72 weeks of treatment with rasagiline (1 or 2 mg once daily) and ‘delayed-start’ patients receive 36 weeks of placebo followed by 36 weeks of rasagiline (1 or 2 mg once daily). […] If subjects in either treatment group required additional anti-parkinsonian medication during the placebo-controlled stage of the trial, they could proceed directly to Phase II. Once in Phase II, no additional anti-PD therapy is permitted. If the patient requires additional medication in this stage they are discontinued from the study.
1 mg/day rasagiline during Phase I and Phase II (1 mg early start) • 2. 2 mg/day rasagiline during Phase I and Phase II (2 mg early start) • 3. placebo during Phase I followed by 1 mg/day rasagiline during Phase II (1 mg delayed start) • 4. placebo during Phase I followed by 2 mg/day rasagiline during Phase II (2 mg delayed start)
If, at any stage during the placebo-controlled phase the investigator determines that a subject needs additional anti-PD therapy, the subject will proceed to Phase II of the study. The investigator, aided by a questionnaire, will give careful consideration to the issue of a subject's need for additional anti-PD therapy. Scheduled in-clinic visits will be conducted at baseline and at weeks 4, 12, 24 and 36. Therefore, altogether there will be 5 scheduled visits during this phase. Unscheduled visits may be conducted at any time to assess a subject's need for additional anti-PD therapy, for safety reasons or for any other reason.
Thus, subjects who receive 1 mg rasagiline during Phase I will continue to receive 1 mg during Phase II, subjects who receive 2 mg rasagiline during Phase I will continue to receive 2 mg during Phase II, and subjects who receive placebo during Phase I will receive either 1 mg or 2 mg rasagiline during Phase II. The study blind will be maintained. No additional anti-PD therapy will be permitted during this phase. This applies to both the subjects who enter Phase II after completing the full 36-week duration of Phase I and to subjects who are switched from Phase I to Phase II because of a need of additional anti-PD therapy. If, the investigator determines that a subject needs additional anti-PD therapy during Phase II, the subject will be prematurely withdrawn from the study. The investigator, aided by a questionnaire, will give careful consideration to the issue of a subject's need for additional anti-PD therapy. Scheduled in-clinic visits will be conducted every 6 weeks. Therefore, altogether there will be 6 visits during this phase—at weeks 42, 48, 54, 60, 66 and 72. Unscheduled visits may be conducted at any time to assess a subject's need for additional anti-PD therapy, for safety reasons or for any other reason.

[1] = Baseline UPDRS > 25.5 (Upper Quartile)
[2] = Baseline UPDRS ≦ 25.5 (Lower 3 Quartiles)
[3] = rasagiline 1 mg/day, Baseline UPDRS > 25.5 (Upper Quartile)
[4] = rasagiline 1 mg/day, Baseline UPDRS ≦ 25.5 (Lower 3 Quartiles)
[5] = rasagiline 1 mg/day, all subjects
[6] = rasagiline 1 mg/day, all subjects, listed as Rasagiline
[7] = rasagiline 2 mg/day delayed-start, Baseline UPDRS > 25.5 (Upper Quartile)
[8] = rasagiline 2 mg/day delayed-start, Baseline UPDRS ≦ 25.5 (Lower 3 Quartiles)
[9] = rasagiline 2 mg/day delayed-start, all subjects
[10] = rasagiline 2 mg/day early-start minus delayed-start, Baseline UPDRS > 25.5 (Upper Quartile)
[11] = rasagiline 2 mg/day early-start minus delayed-start, Baseline UPDRS ≦ 25.5 (Lower 3 Quartiles)
[12] = rasagiline 2 mg/day early-start, Baseline UPDRS > 25.5 (Upper Quartile)
[13] = rasagiline 2 mg/day early-start, Baseline UPDRS ≦ 25.5 (Lower 3 Quartiles)
[14] = rasagiline 2 mg/day early-start, all subjects
[15] = rasagiline 2 mg/day, Baseline UPDRS > 25.5 (Upper Quartile)
[16] = rasagiline 2 mg/day, Baseline UPDRS ≦ 25.5 (Lower 3 Quartiles)
[17] = rasagiline 2 mg/day, all subjects

## C#CCN[C@@H]1CCc2ccccc21 [rasagiline]
[1]
  Primary 1: rate of change in UPDRS, weeks 12-36, 1 mg/day - placebo: −0.11 UPDRS units/wk
  Secondary Endpoint: change in total UPDRS from baseline to final visit in phase I, 1 mg/day - placebo: −6.43
  Primary 1: rate of change in UPDRS, weeks 12-36, 2 mg/day - placebo: −0.20 UPDRS units/wk
  Secondary Endpoint: change in total UPDRS from baseline to final visit in phase I, 2 mg/day - placebo: −7.13
[2]
  Primary 1: rate of change in UPDRS, weeks 12-36, 1 mg/day - placebo: −0.03 UPDRS units/wk
  Secondary Endpoint: change in total UPDRS from baseline to final visit in phase I, 1 mg/day - placebo: −2.34
  Primary 1: rate of change in UPDRS, weeks 12-36, 2 mg/day - placebo: −0.03 UPDRS units/wk
  Secondary Endpoint: change in total UPDRS from baseline to final visit in phase I, 2 mg/day - placebo: −2.16
All subjects
  Primary 1: rate of change in UPDRS, weeks 12-36, 1 mg/day - placebo: −0.05±0.02 UPDRS units/wk and −0.05 UPDRS units/wk
  Secondary Endpoint: change in total UPDRS from baseline to final visit in phase I, 1 mg/day - placebo: −3.01±0.43 and −3.01
  Primary 1: rate of change in UPDRS, weeks 12-36, 2 mg/day - placebo: −0.07±0.02 UPDRS units/wk and −0.07 UPDRS units/wk
  Secondary Endpoint: change in total UPDRS from baseline to final visit in phase I, 2 mg/day - placebo: −3.15±0.43 and −3.15
[3]
  Primary 1: rate of change in UPDRS, weeks 12-36: 0.14 UPDRS units/wk
  Secondary Endpoint: change in total UPDRS from baseline to final visit in phase I: 0.27
[4]
  Primary 1: rate of change in UPDRS, weeks 12-36: 0.08 UPDRS units/wk
  Secondary Endpoint: change in total UPDRS from baseline to final visit in phase I: 1.40
Rasagiline 1 mg/day, Completers (n = 409), MMRM (week 48-72)
  Change from baseline to week 72 in Total-UPDRS, early- vs delayed-start, Estimate: −1.6
Rasagiline 1 mg/day, ITT cohort (observed data), MMRM (weeks 12-72)
  Change from baseline to week 72 in Total-UPDRS, early- vs delayed-start, Estimate: −1.7
Rasagiline 1 mg/day, Imputed - primary study cohort, Imputation by means of the delayed-start group (week 48-72)
  Change from baseline to week 72 in Total-UPDRS, early- vs delayed-start, Estimate: −1.2
Rasagiline 1 mg/day, Imputed - primary study cohort, Multiple imputation (week 48-72)
  Change from baseline to week 72 in Total-UPDRS, early- vs delayed-start, Estimate: −1.8
Rasagiline 1 mg/day, Per protocol (n = 405), MMRM (week 48-72)
  Change from baseline to week 72 in Total-UPDRS, early- vs delayed-start, Estimate: −1.6
Rasagiline 1 mg/day, Primary study cohort (n = 489), MMRM (week 48-72)
  Change from baseline to week 72 in Total-UPDRS, early- vs delayed-start, Estimate: −1.7
Rasagiline 1 mg/day, Primary study cohort, ANCOVA with LOCF
  Change from baseline to week 72 in Total-UPDRS, early- vs delayed-start, Estimate: −1.7
Rasagiline 1 mg/day, Primary study cohort, MMRM, average change from baseline across weeks 48-72
  Change from baseline to week 72 in Total-UPDRS, early- vs delayed-start, Estimate: −1.6
[5]
  Primary 1: rate of change in UPDRS, weeks 12-36: 0.09 UPDRS units/wk
  Secondary Endpoint: change in total UPDRS from baseline to final visit in phase I: 1.26
  outcome of the primary analysis (three hierarchal endpoints): met all three primary analysis endpoints
[6]
  Primary 1: rate of change in UPDRS, weeks 12-36: 0.09±0.02 UPDRS units/wk
  outcome of the primary analysis (three hierarchal endpoints): met all endpoints
[7]
  Primary 2: estimated change in total UPDRS from baseline to week 72: 5.09
  Primary 3: rate of change in UPDRS, weeks 48-72: 0.137 UPDRS units/wk
[8]
  Primary 2: estimated change in total UPDRS from baseline to week 72: 2.60
  Primary 3: rate if change in UPDRS, weeks 48-72: 0.05 UPDRS units/wk
[9]
  Primary 2: estimated change in total UPDRS from baseline to week 72: 3.11
  Primary 3: rate of change in UPDRS, weeks 48-72: 0.065 UPDRS units/wk
Rasagiline 2 mg/day delayed-start, all subjects, listed as Rasagiline
  Primary 2: estimated change in total UPDRS from baseline to week 72: 3.11±0.5
[10]
  Primary 2: estimated change in total UPDRS from baseline to week 72, early-start-delayed-start: −3.63±1.72 and −3.63
  Primary 3: rate of change in UPDRS, weeks 48-72, early-start-delayed start: −0.03 UPDRS units/wk
[11]
  Primary 2: estimated change in total UPDRS from baseline to week 72, early-start-delayed-start: 1.10
  Primary 3: rate if change in UPDRS, weeks 48-72, early-start-delayed start: 0.05 UPDRS units/wk
Rasagiline 2 mg/day early-start minus delayed-start, all subjects
  Primary 2: estimated change in total UPDRS from baseline to week 72, early-start-delayed-start: 0.36±0.68 and 0.36
Rasagiline 2 mg/day early-start minus delayed-start, all subjects, non-inferiority margin 0.15
  Primary 3: rate of change in UPDRS, weeks 48-72, early-start-delayed start: 0.03 UPDRS units/wk
[12]
  Primary 2: estimated change in total UPDRS from baseline to week 72: 1.46
  Primary 3: rate of change in UPDRS, weeks 48-72: 0.106 UPDRS units/wk
[13]
  Primary 2: estimated change in total UPDRS from baseline to week 72: 3.70
  Primary 3: rate if change in UPDRS, weeks 48-72: 0.09 UPDRS units/wk
[14]
  Primary 2: estimated change in total UPDRS from baseline to week 72: 3.47
  Primary 3: rate of change in UPDRS, weeks 48-72: 0.094 UPDRS units/wk
Rasagiline 2 mg/day early-start, all subjects, listed as Rasagiline
  Primary 2: estimated change in total UPDRS from baseline to week 72: 3.47±0.5
[15]
  Primary 1: rate of change in UPDRS, weeks 12-36: 0.05 UPDRS units/wk
  Secondary Endpoint: change in total UPDRS from baseline to final visit in phase I: −0.43
[16]
  Primary 1: rate of change in UPDRS, weeks 12-36: 0.07 UPDRS units/wk
  Secondary Endpoint: change in total UPDRS from baseline to final visit in phase I: 1.58
[17]
  Primary 1: rate of change in UPDRS, weeks 12-36: 0.07 UPDRS units/wk
  Secondary Endpoint: change in total UPDRS from baseline to final visit in phase I: 1.11
  outcome of the primary analysis (three hierarchal endpoints): did not meet all three endpoints
Rasagiline 2 mg/day, all subjects, listed as Rasagiline
  outcome of the primary analysis (three hierarchal endpoints): did not meet all endpoints
